# Measurements: US12441754B2, “Galactoside inhibitor of galectins” (GALECTO BIOTECH AB, priority 2019, dated 2025)
# Like-named read-outs stand apart in the source and are kept apart here.
# Columns and labels:
# [1] = target: Galectin-1 (Homo sapiens, UniProt P09382); assay: fluorescence anisotropy assay, compound as inhibitor of galectin / fluorescein tagged saccharide probe interaction; format: binding
# Description: (§1) Anal. Biochem. 334: 36-47, (Sörme et al., 2004) and Monovalent interactions of Galectin-1 By Salomonsson, Emma; Larumbe, Amaia; Tejler, Johan; Tullberg, Erik; Rydberg, Hanna; Sundin, Anders; Khabut, Areej; Frejd, Torbjorn; Lobsanov, Yuri D.; Rini, James M.; et al, From Biochemistry (2010), 49(44), 9518-9532, (Salomonsson et al., 2010).
# [2] = target: Galectin-3 (Homo sapiens, UniProt P17931); assay: as above; format: binding
# Galectin-3, sequence (P17931 whole entry): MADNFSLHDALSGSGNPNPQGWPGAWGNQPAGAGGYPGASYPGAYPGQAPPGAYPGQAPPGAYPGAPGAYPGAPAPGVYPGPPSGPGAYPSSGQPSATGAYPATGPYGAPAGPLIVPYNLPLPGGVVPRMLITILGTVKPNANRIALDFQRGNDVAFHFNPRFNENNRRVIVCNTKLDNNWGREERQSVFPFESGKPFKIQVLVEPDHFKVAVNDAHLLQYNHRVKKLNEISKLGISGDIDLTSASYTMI
# Description: as §1
# Galectin-1, sequence (P09382 whole entry): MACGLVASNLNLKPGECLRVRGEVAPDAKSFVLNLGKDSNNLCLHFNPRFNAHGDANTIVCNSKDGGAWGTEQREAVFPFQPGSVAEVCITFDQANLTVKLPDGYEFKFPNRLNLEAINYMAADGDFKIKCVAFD
SMILES,Kd [1],Kd [2],Kd ([1]; read-out: Galectin-1 Kd)
"CO[C@@H]1[C@@H](n2cc(-c3csc(N)n3)nn2)[C@@H](O)[C@@H](CO)O[C@@H]1Sc1cncc(C#N)c1 [Example 40, 5-Cyanopyridin-3yl 3-[4-(2-aminothiazol-4-yl)-1H-1,2,3-triazol-1-yl]-3-deoxy-2-O-methyl-1-thio-α-D-galactopyranoside]",240 nM,10700 nM,
"CO[C@@H]1[C@@H](n2cc(-c3nc(Cl)cs3)nn2)[C@@H](O)[C@@H](CO)O[C@@H]1Sc1cncc(SC)c1 [Example 102, 5-Methylsulfanylpyridin-3-yl 3-[4-(4-chlorothiazol-2-yl)-1H-1,2,3-triazol-1-yl]-3-deoxy-2-O-methyl-1-thio-α-D-galactopyranoside]",190 nM,420 nM,
"C#Cc1cncc(S[C@H]2O[C@H](CO)[C@H](O)[C@H](n3cc(-c4nc(Cl)cs4)nn3)[C@H]2O)c1 [Example 80, 5-Ethynylpyridin-3-yl 3-[4-(4-chlorothiazol-2-yl)-1H-1,2,3-triazol-1-yl]-3-deoxy-1-thio-α-D-galactopyranoside]",310 nM,360 nM,
"OC[C@H]1O[C@H](Sc2cc(Cl)cnc2-c2ncc[nH]2)[C@H](O)[C@@H](n2cc(-c3csc(O)n3)nn2)[C@H]1O [Example 75, 5-Chloro-2-(1H-imidazol-2-yl)pyridin-3-yl 3-deoxy-3-[4-(2-hydroxythiazol-4-yl)-1H-1,2,3-triazol-1-yl]-1-thio-α-D-galactopyranoside]",130 nM,7700 nM,
"CO[C@@H]1[C@@H](n2cc(-c3csc(N)n3)nn2)[C@@H](O)[C@@H](CO)O[C@@H]1Sc1cnc(C(F)(F)F)c(C#N)c1 [Example 44, 3-Cyano-2-(trifluoromethyl)pyridin-5-yl 3-[4-(2-aminothiazol-4-yl)-1H-1,2,3-triazol-1-yl]-3-deoxy-2-O-methyl-1-thio-α-D-galactopyranoside]",360 nM,16700 nM,
"CO[C@@H]1[C@@H](n2cc(-c3nc(C)cs3)nn2)[C@@H](O)[C@@H](CO)O[C@@H]1Sc1cc(Br)ccc1F [Example 69, 5-Bromo-2-fluorophenyl 3-deoxy-3-[4-(4-methylthiazol-2-yl)-1H-1,2,3-triazol-1-yl]-2-O-methyl-1-thio-α-D-galactopyranoside]",650 nM,12000 nM,
"OC[C@H]1O[C@H](Sc2cncc(Br)c2)[C@H](O)[C@@H](n2cc(-c3nc(Cl)cs3)nn2)[C@H]1O [Example 49, 5-Bromopyridin-3-yl 3-[4-(4-chlorothiazol-2-yl)-1H-1,2,3-triazol-1-yl]-3-deoxy-1-thio-α-D-galactopyranoside]",150 nM,190 nM,
"CO[C@@H]1[C@@H](n2cc(-c3nccs3)nn2)[C@@H](O)[C@@H](CO)O[C@@H]1Sc1cc(Cl)ccc1Cl [Example 66, 2,5-Dichlorophenyl 3-deoxy-2-O-methyl-3-[4-(2-thiazolyl)-1H-1,2,3-triazol-1-yl]-1-thio-α-D-galactopyranoside]",220 nM,4100 nM,
"CO[C@@H]1[C@@H](n2cc(-c3nc(C)c(Cl)s3)nn2)[C@@H](O)[C@@H](CO)O[C@@H]1Sc1cc(Br)cnc1C#N [Example 64, 5-Bromo-2-cyanopyridin-3-yl 3-[4-(5-chloro-4-methylthiazol-2-yl)-1H-1,2,3-triazol-1-yl]-3-deoxy-2-O-methyl-1-thio-α-D-galactopyranoside]",280 nM,220 nM,
"N#Cc1ccc(S[C@H]2O[C@H](CO)[C@H](O)[C@H](n3cc(-c4nc(Cl)cs4)nn3)[C@H]2O)cc1Cl [Example 52, 3-Chloro-4-cyanophenyl 3-[4-(4-chlorothiazol-2-yl)-1H-1,2,3-triazol-1-yl]-3-deoxy-1-thio-α-D-galactopyranoside]",170 nM,410 nM,
"N#Cc1ccc(S[C@@H]2C[C@@H](n3cc(-c4csc(O)n4)nn3)[C@@H](O)[C@@H](CO)O2)cc1Cl [Example 89, 3-Chloro-4-cyanophenyl 2,3-dideoxy-3-[4-(2-hydroxythiazol-4-yl)-1H-1,2,3-triazol-1-yl]-1-thio-α-D-galactopyranoside]",210 nM,10500 nM,
"OC[C@H]1O[C@H](Sc2ccc(Cl)c(Cl)c2)[C@H](OCC(F)(F)F)[C@@H](n2cc(-c3csc(O)n3)nn2)[C@H]1O [Example 79, 3,4-Dichlorophenyl 3-deoxy-2-O-(2,2,2-trifluoroethyl)-3-[4-(2-hydroxythiazol-4-yl)-1H-1,2,3-triazol-1-yl]-1-thio-α-D-galactopyranoside]",460 nM,6800 nM,
"Cc1cnc(C#N)c(S[C@H]2O[C@H](CO)[C@H](O)[C@H](n3cc(-c4nc(Cl)cs4)nn3)[C@H]2O)c1 [Example 77, 2-Cyano-5-methylpyridin-3-yl 3-[4-(4-chlorothiazol-2-yl)-1H-1,2,3-triazol-1-yl]-3-deoxy-1-thio-α-D-galactopyranoside]",830 nM,860 nM,
"CO[C@@H]1[C@@H](n2cc(-c3nccs3)nn2)[C@@H](O)[C@@H](CO)O[C@@H]1Sc1cc(Br)cnc1C#N [Example 3, 5-Bromo-2-cyanopyridin-3-yl 3-deoxy-2-O-methyl-3-[4-(2-thiazolyl)-1H-1,2,3-triazol-1-yl]-1-thio-α-D-galactopyranoside]",110 nM,1100 nM,
"CO[C@@H]1[C@@H](n2cc(-c3csc(O)n3)nn2)[C@@H](O)[C@@H](CO)O[C@@H]1Sc1cc(Cl)c(F)c(Cl)c1 [Example 7, 3,5-Dichloro-4-fluorophenyl 3-deoxy-3-[4-(2-hydroxythiazol-4-yl)-1H-1,2,3-triazol-1-yl]-2-O-methyl-1-thio-α-D-galactopyranoside]",,2600 nM,29 nM

# Now from value to compound, other results behind:
Kd [1],Kd [2],SMILES,Kd ([1]; read-out: Galectin-1 Kd)
32 nM,99 nM,"C#Cc1cnc(C(=O)N2CCC2)c(S[C@H]2OC(CO)[C@H](O)C(n3cc(-c4nc(Cl)cs4)nn3)C2OC)c1 (stereo partly drawn) [Example 92, 2-(N-Azetidinylcarbamoyl)-5-ethynylpyridin-3-yl 3-[4-(4-chlorothiazol-2-yl)-1H-1,2,3-triazol-1-yl]-3-deoxy-2-O-methyl-1-thio-α-D-galactopyranoside]",
83 nM,320 nM,"CO[C@@H]1[C@@H](n2cc(-c3nc(Cl)cs3)nn2)[C@@H](O)[C@@H](CO)O[C@@H]1Sc1ccc2ncsc2c1 [Example 97, 1,3-Benzothiazol-6-yl 3-[4-(4-chlorothiazol-2-yl)-1H-1,2,3-triazol-1-yl]-3-deoxy-2-O-methyl-1-thio-α-D-galactopyranoside]",
32 nM,180 nM,"CO[C@@H]1[C@@H](n2cc(-c3nc(Cl)cs3)nn2)[C@@H](O)[C@@H](CO)O[C@@H]1Sc1cc2scnc2cc1C#N [Example 100, 5-Cyano-1,3-benzothiazol-6-yl 3-[4-(4-chlorothiazol-2-yl)-1H-1,2,3-triazol-1-yl]-3-deoxy-2-O-methyl-1-thio-α-D-galactopyranoside]",
96 nM,2100 nM,"CO[C@@H]1[C@@H](n2cc(-c3nccs3)nn2)[C@@H](O)[C@@H](CO)O[C@@H]1Sc1cc(Br)ccc1C#N [Example 56, 5-Bromo-2-cyanophenyl 3-deoxy-2-O-methyl-3-[4-(2-thiazolyl)-1H-1,2,3-triazol-1-yl]-1-thio-α-D-galactopyranoside]",
100 nM,> 100000 nM,"CC(C)O[C@@H]1[C@@H](n2cc(-c3csc(O)n3)nn2)[C@@H](O)[C@@H](CO)O[C@@H]1Sc1ccc(Cl)c(Cl)c1 [Example 8, 3,4-Dichlorophenyl 3-deoxy-3-[4-(2-hydroxythiazol-4-yl)-1H-1,2,3-triazol-1-yl]-2-O-isopropyl-1-thio-α-D-galactopyranoside]",
45 nM,2300 nM,"CO[C@@H]1[C@@H](n2cc(-c3csc(N)n3)nn2)[C@@H](O)[C@@H](CO)O[C@@H]1Sc1cc(Cl)cnc1-c1cncnc1 [Example 21, 5-Chloro-2-(pyrimidin-5-yl)pyridin-3-yl 3-[4-(2-aminothiazol-4-yl)-1H-1,2,3-triazol-1-yl]-3-deoxy-2-O-methyl-1-thio-α-D-galactopyranoside]",
28 nM,3200 nM,"CO[C@@H]1[C@@H](n2cc(-c3csc(N)n3)nn2)[C@@H](O)[C@@H](CO)O[C@@H]1Sc1cc(Cl)cnc1-c1ncco1 [Example 27, 5-Chloro-2-(oxazol-2-yl)pyridin-3-yl 3-[4-(2-aminothiazol-4-yl)-1H-1,2,3-triazol-1-yl]-3-deoxy-2-O-methyl-1-thio-α-D-galactopyranoside]",
64 nM,6500 nM,"CO[C@@H]1[C@@H](n2cc(-c3csc(O)n3)nn2)[C@@H](O)[C@@H](CO)O[C@@H]1Sc1ccc2ncsc2c1 [Example 98, 1,3-Benzothiazol-6-yl 3-deoxy-3-[4-(2-hydroxythiazol-4-yl)-1H-1,2,3-triazol-1-yl]-2-O-methyl-1-thio-α-D-galactopyranoside]",
71 nM,3600 nM,"CO[C@@H]1[C@@H](n2cc(-c3csc(N)n3)nn2)[C@@H](O)[C@@H](CO)O[C@@H]1Sc1ccc(C#N)c(Cl)c1 [Example 39, 3-Chloro-4-cyanophenyl 3-[4-(2-aminothiazol-4-yl)-1H-1,2,3-triazol-1-yl]-3-deoxy-2-O-methyl-1-thio-α-D-galactopyranoside]",
22 nM,210 nM,"CO[C@@H]1[C@@H](n2cc(-c3nc(Cl)cs3)nn2)[C@@H](O)[C@@H](CO)O[C@@H]1Sc1cc(Cl)ccc1C#N [Example 96, 5-Chloro-2-cyanophenyl 3-[4-(4-chlorothiazol-2-yl)-1H-1,2,3-triazol-1-yl]-3-deoxy-2-O-methyl-1-thio-α-D-galactopyranoside]",
8 nM,93 nM,"CCO[C@@H]1[C@@H](n2cc(-c3nc(Cl)cs3)nn2)[C@@H](O)[C@@H](CO)O[C@@H]1Sc1cc(Cl)cnc1C(=O)NC [Example 95, 5-Chloro-2-(N-methylcarbamoyl)pyridin-3-yl 3-[4-(4-chlorothiazol-2-yl)-1H-1,2,3-triazol-1-yl]-3-deoxy-2-O-ethyl-1-thio-α-D-galactopyranoside]",
